The target in data set [1] is T1, Leukotriene, Cysteinyl (CysLT1) receptor (Homo sapiens, UniProt Q9Y271).
T1 construct: expressed in transfected cells; host or cells: CHO-K1 cells
T1 sequence (Q9Y271 1-337): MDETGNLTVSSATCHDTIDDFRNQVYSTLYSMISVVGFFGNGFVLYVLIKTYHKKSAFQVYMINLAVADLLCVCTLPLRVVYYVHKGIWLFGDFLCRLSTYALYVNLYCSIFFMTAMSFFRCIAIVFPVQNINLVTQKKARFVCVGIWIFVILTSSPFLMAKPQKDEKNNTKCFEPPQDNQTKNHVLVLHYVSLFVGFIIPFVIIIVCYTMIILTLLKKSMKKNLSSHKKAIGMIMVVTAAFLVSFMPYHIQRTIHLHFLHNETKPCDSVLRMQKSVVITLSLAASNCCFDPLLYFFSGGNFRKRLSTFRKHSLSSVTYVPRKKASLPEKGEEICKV
Description: CysLT1 radioligand binding assay. Particulars: 4 μM compound, 1% DMSO; read-out: Percentage of inhibition or binding activity, CysLT1 (4 μM). An excerpt: Leukotriene, Cysteinyl (CysLT1) is involved in inflammation and CysLT1-selective antagonists are used as treatment for bronchial asthma.
(§1) The procedures used were based on known assays: ACAT (from rat; Ref: Largis et al (1989), J. Lipid. Res., vol 30, 681-689), COX-2 (human; Ref: Riendeau et al (1997), Can. J. Physiol. Pharmacol., vol 75, 1088-1095 and Warner et al (1999), Pro. Natl. Acad. Sci. USA, vol 96, 7563-7568), 5-LO (human; Ref: Carter et al (1991), J. Pharmacol. Exp. Ther., vol 256, no 3, 929-937, and Safayhi et al (2000), Planta Medica, vol 66, 110-113), PBR (from rat; Le Fur et al (1983), Life Sci. USA, vol 33, 449-457), CysLT1 (human; Martin et al (2001), Biochem. Pharmacol., vol 62, no 9, 1193-1200) and CBR (from rat; Damm et al (1978), Res. Comm. Chem. Pathol. Pharmacol., vol 22, 597-600 and Speth et al (1979), Life Sci., vol 24, 351-357).
(§2) Binding assays were done for each of Compounds 1-12 and 46 using ACAT, COX-2, 5-LO, PBR and CysLT1 enzymes. The procedures used are based on the respective references mentioned above and the conditions are summarized in Tables 16 (enzyme assays) and 17 (radioligand receptor assays).
(§3) Binding Assays were done at constant concentration of the compound, in 1% DMSO as vehicle, and are specified below each enzyme/receptor type in Table 18. The results are expressed in Table 18 as percentage inhibition. Significance was obtained when a result was ≧50% binding or inhibition (underlined).

For data set [2], the target named is T2, peripheral benzodiazepine receptor (PBR) (Rattus norvegicus, UniProt P16257).
T2 construct: CBR and PBR were obtained from rat brain and heart membrane-fractions, respectively; from tissue; host or cells: Wistar rat heart membranes
Kind of data set: PBR radioligand binding assay ([3H]PK-11195, rat heart). Particulars: for inhibition at 1 µM: 1 μM compound, 1% DMSO, read-out: Percentage of inhibition or binding activity, PBR (1 μM).
From the text: as §1, §2, §3
As Compound 1 was isolated from structural prediction through genetic analysis and activity identified through in vitro cytotoxic assays, its molecular target(s) were unknown at the time of discovery. Based on the structural characteristics of ECO-4601, we first investigated its binding affinity to the central (GABAA; CBR;) and peripheral (PBR) benzodiazepine receptors. The effect of ECO-4601 on CBR (GABAA) and PBR was initially evaluated in a radioligand-binding assay at MDS Pharma Services (Taipei, Tawain). CBR and PBR were obtained from rat brain and heart membrane-fractions, respectively. Displacement assays were done in the presence of 1 nM [^3H]-Flunitrazepam (CBR; GABAA) or 0.3 nM of [^3H]-PK11195 (PBR). ECO-4601 was tested at 0.01, 0.1, 0.5, 1, 5 and 10 μM. Non-specific binding was estimated in the presence of 10 μM diazepam (CBR) or 100 μM dipyrimadole (PBR) and assays were performed according to previous described methods (Damm et al Res Commun Chem Pathol Pharmacol 22, pp 597-600; Le Fur et al (1983) Life Science 33, pp 449-57). […] This contrats with current specific PBR ligands, which bind the PBR with nanomolar affinity yet their effect on cell proliferation, is in the micromolar range.

Data set [3] has as its system Acyl CoA-Cholesterol Acyltransferase (ACAT). Description: ACAT enzyme assay. The format is biochemical, rat. Particulars: 10 μM compound, 1% DMSO.
From the text: Acyl CoA-Cholesterol Acyltransferase (ACAT) converts cholesterol to cholesteryl esters and is involved in the development of artherioscerosis.
as §1, §2, §3

The conditions of data set [4]: for MTD: mouse, in vivo.
A short description of the next data set: in vivo. The settings on record: CD-1 nu/nu, mouse, iv.
Data set [5] concerns HT-29 (colorectal carcinoma). Kind of data set: In vitro cytotoxic activity (GI50, propidium iodide), HT-29. The format is cell-based. The settings on record: for GI50: Homo sapiens, HT-29, 96 h, method (1), 96 hours. On the procedure: (§4) Procedures used for each series of tests are described below.
(§5) Compounds were dissolved at 10 mM in DMSO. […] The following day, propidium iodide was added to one of the two plates and fluorescence measured (Tz). […] Each compound was tested at each concentration and in triplicates. The equivalent cell number was determined after adding propidium iodide by measuring the signal by fluorescence (C for control).

The subject of another data set is SF268 (CNS). Description: In vitro cytotoxic activity (GI50, propidium iodide), SF-268. Particulars: Homo sapiens, SF-268, 96 h, method (1), 96 hours. The format is cell-based. The method, then: as §4, §5
Data set [6] deals with PC-3 (prostate adenocarcinoma). Description: In vitro cytotoxic activity (GI50, propidium iodide), PC-3. The data set is classed as cell-based, human. Particulars: Homo sapiens, 96 h, method (1). On the procedure:
as §4, §5

Data set [7] concerns MDA-MB-231 (mammary gland adenocarcinoma). Kind of data set: In vitro cytotoxic activity (GI50, propidium iodide), MDA-MB-231. The data set is classed as cell-based, human. Particulars: Homo sapiens, MDA-MB-231, 96 h, method (1), 96 hours. The method, then: as §4, §5

“And” between values parts separate entries of the source, which are not always exact repeats. Identical values can stand only once. Like-named read-outs stand apart in the source and are kept apart here.

A word on the inhibition: it is the drop in the measured response relative to a control, in per cent. The IC50 is the point on the concentration scale where inhibition reaches its midpoint. Broadly, the Ki is a dissociation constant, usually derived from enzyme kinetics or from competition with a known ligand. For the compound `CC(C)=CCC/C(C)=C/CC/C(C)=C/CN1C(=O)c2cccc(O)c2Nc2c(O)cc(O)cc21` [Compound 1, 10-farnesyl-4,6,8-trihydroxy-5,10-dihydrodibenzo[b,e][1,4]diazepin-11-one], the inhibition at 4 µM in data set [1] is 92%. Besides, the inhibition at 1 µM in [2] is 80%. Besides, the half-inhibitory concentration (IC50) in [2] (multiple dilutions, 0.3 nM [3H]-PK11195, rat heart, read-out: PBR IC50 (binding affinity)) is 291 nM and ~300 nM. In data set [2] (multiple dilutions, read-out: PBR inhibition constant (Ki)), the Ki worked out at 257 nM. Moreover, the “Percentage of inhibition or binding activity, ACAT (10 μM)” value in data set [3] turned out to be 90%. In addition, the MTD in [4] (iv) amounted to 150 mg/kg.
Regarding `CC(C)=CCC/C(C)=C/CC/C(C)=C/CN1C(=O)c2cccc(O)c2N(C)c2c(O)cc(O)cc21` [Compound 2, 10-farnesyl-4,6,8-trihydroxy-5-methyl-5,10-dihydro-dibenzo[b,e][1,4]diazepin-11-one], the inhibition at 4 µM in [1] is 75%. The values for the MTD (in the data set “in vivo”; in data set [4] (ip)) were greater than 100 mg/kg and no less than 50 mg/kg, respectively. In data set [2], the inhibition at 1 µM was 65%. In data set [5] (HT-29 cell line), the “increase of cytotoxic activity compared to parent Compound 1” value was “fifty fold increase”. In addition, the “Percentage of inhibition or binding activity, ACAT (10 μM)” value in data set [3] was 51%. Moreover, the weight losses result in data set [4] (for several days post-injection) is “about 7%”.
`CC(C)=CCC/C(C)=C/CC/C(C)=C/CN1C(=O)c2cccc(O)c2N(Cc2ccccc2)c2c(O)cc(O)cc21` [Compound 3, 5-benzyl-10-farnesyl-4,6,8-trihydroxy-5,10-dihydro-dibenzo[b,e][1,4]diazepin-11-one]: in data set [1], the inhibition at 4 µM turned out to be 59%. In addition, in [2], the inhibition at 1 µM is 11%. The “Percentage of inhibition or binding activity, ACAT (10 μM)” value in data set [3] is given as 63%.
Consider `COc1cccc2c1Nc1c(O)cc(O)cc1N(C/C=C(\C)CC/C=C(\C)CCC=C(C)C)C2=O` [Compound 4, 10-farnesyl-6,8-dihydroxy-4-methoxy-5,10-dihydro-dibenzo[b,e][1,4]diazepin-11-one], for which the inhibition at 4 µM in data set [1] stood at 64%. Further, the inhibition at 1 µM in [2] worked out at 92%. In addition, the “Percentage of inhibition or binding activity, ACAT (10 μM)” value in [3] was 65%.
`COc1cc(O)cc2c1Nc1c(O)cccc1C(=O)N2C/C=C(\C)CC/C=C(\C)CCC=C(C)C` [Compound 5, 10-farnesyl-4,8-dihydroxy-6-methoxy-5,10-dihydro-dibenzo[b,e][1,4]diazepin-11-one]: the inhibition at 4 µM in data set [1] was 72%. The inhibition at 1 µM in data set [2] stood at 68%. In addition, the “Percentage of inhibition or binding activity, ACAT (10 μM)” value in data set [3] was 60%.
In the case of `COc1cc(OC)c2c(c1)N(C/C=C(\C)CC/C=C(\C)CCC=C(C)C)C(=O)c1cccc(O)c1N2` [Compound 6, 10-farnesyl-4-hydroxy-6,8-dimethoxy-5,10-dihydro-dibenzo[b,e][1,4]diazepin-11-one], the inhibition at 4 µM in [1] was found to be 24%. The inhibition at 1 µM in [2] was determined as 75%. Moreover, in [3], the “Percentage of inhibition or binding activity, ACAT (10 μM)” value is listed as 54%.
For `COc1cccc2c1Nc1c(OC)cc(O)cc1N(CC=C(C)CCC=C(C)CCC=C(C)C)C2=O` [Compound 7, 10-farnesyl-8-hydroxy-4,6-dimethoxy-5,10-dihydro-dibenzo[b,e][1,4]diazepin-11-one] the same measures were 15%, 65% and 95%.
For the compound `COc1cc(OC)c2c(c1)N(CC=C(C)CCC=C(C)CCC=C(C)C)C(=O)c1cccc(OC)c1N2` [Compound 8, 10-farnesyl-4,6,8-trimethoxy-5,10-dihydro-dibenzo[b,e][1,4]diazepin-11-one], in [1], the inhibition at 4 µM worked out at 13%. In data set [2], the inhibition at 1 µM was determined as 55%. For the same compound, in [3], the “Percentage of inhibition or binding activity, ACAT (10 μM)” value is given as 40%.
As usually defined, the GI50 is the concentration at which growth is held to half of that of the control. The low end stands for greater sensitivity of the cells, the high end for lower sensitivity of the cells. `CC(=O)Oc1cc(OC(C)=O)c2c(c1)N(CC=C(C)CCC=C(C)CCC=C(C)C)C(=O)c1cccc(O)c1N2` [Compound 9, 6,8-diacetoxy-10-farnesyl-4-hydroxy-5,10-dihydro-dibenzo[b,e][1,4]diazepin-11-one]: in [1], the inhibition at 4 µM amounted to 70%. The GI50 in the data set with SF268 (CNS) stood at 1.88 µM; in [5] it was 12.6 µM; in data set [6], 1.44 µM; in data set [7], 2.48 µM. Also, the inhibition at 1 µM in data set [2] stood at 32%. Besides, the “Percentage of inhibition or binding activity, ACAT (10 μM)” value in [3] is 77%.
Consider `CC(=O)Oc1cccc2c1Nc1c(OC(C)=O)cc(O)cc1N(CC=C(C)CCC=C(C)CCC=C(C)C)C2=O` [Compound 10, 4,6-diacetoxy-10-farnesyl-8-hydroxy-5,10-dihydro-dibenzo[b,e][1,4]diazepin-11-one], for which the inhibition at 4 µM in [1] is 67%. Further, the GI50 in the data set on SF268 (CNS) amounted to 2.02 µM; in [5] it was 13 µM; in data set [6], 1.35 µM; in [7], 1.55 µM. The inhibition at 1 µM in data set [2] turned out to be 86%. In addition, the “Percentage of inhibition or binding activity, ACAT (10 μM)” value in data set [3] worked out at 90%.
On to `CC(=O)Oc1cc(O)c2c(c1)N(CC=C(C)CCC=C(C)CCC=C(C)C)C(=O)c1cccc(OC(C)=O)c1N2` [Compound 11, 4,8-diacetoxy-10-farnesyl-6-hydroxy-5,10-dihydro-dibenzo[b,e][1,4]diazepin-11-one], for which, in [1], the inhibition at 4 µM worked out at 74%. For the same compound, the GI50 with SF268 (CNS) turned out to be 5.79 µM; in data set [5], 16 µM; in [6] it was 5.35 µM; in data set [7], 7.72 µM. For the same compound, the inhibition at 1 µM in [2] amounted to 39%. In [3], the “Percentage of inhibition or binding activity, ACAT (10 μM)” value turned out to be 71%.
On to `CC(=O)Oc1cc(OC(C)=O)c2c(c1)N(CC=C(C)CCC=C(C)CCC=C(C)C)C(=O)c1cccc(OC(C)=O)c1N2` [Compound 12, 4,6,8-triacetoxy-10-farnesyl-5,10-dihydro-dibenzo[b,e][1,4]diazepin-11-one], for which the inhibition at 4 µM in data set [1] turned out to be 33%. Moreover, the inhibition at 1 µM in data set [2] stood at 39%. For the same compound, the “Percentage of inhibition or binding activity, ACAT (10 μM)” value in data set [3] is 83%.
Regarding `CC(C)CCCC(C)CCCC(C)CCN1C(=O)c2cccc(O)c2Nc2c(O)cc(O)cc21` (centres unmarked) [Compound 46, 10-(3,7,11-trimethyldodecyl)-4,6,8-trihydroxy-5,10-dihydro-dibenzo[b,e][1,4]diazepin-11-one], in data set [1], the inhibition at 4 µM is 71%. Also, the inhibition at 1 µM in data set [2] was -1%. Moreover, the “Percentage of inhibition or binding activity, ACAT (10 μM)” value in [3] was determined as 8%. In addition, the concentration for 50% growth inhibition (GI50) in data set [6] stood at 0.9 µM.

Values taken from patent US20090062255A1, “TUMOR-TARGETING EVALUATION METHODOLOGY AND COMPOUNDS RELATED THERETO” (THALLION PHARMACEUTICALS INC., priority 2007, published 2009).
